16 compounds from US7094909B2, “HIV protease inhibitors, compositions containing the same, their pharmaceutical uses and materials for their synthesis” (priority 2001, dated 2006) can be followed below.

Usually Ki stands for a measure of affinity in units of concentration, obtained from inhibition or displacement. A word on the EC50: it is the concentration that produces a half-maximal response.

The structures appear in SMILES notation. Several values for one entry are separate records, joined by “and”; a condition that tells them apart may be missing. Equal entries are not always repeated. Where two headings read alike, the source gives them in different places.

The target of experiment [1] is T1, HIV-1 protease (Q7S mutant form) (Human immunodeficiency virus type 1 group M subtype B, UniProt P04585, Q495S).
T1 construct: made in house
As to the kind of experiment: HIV-1 Protease RET assay. The class given is biochemical. The method in brief: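 Ki values fitted with the Morrison tight-binding equation from steady-state RET cleavage (ex 340, em 490 nm) of 5 μM RE(EDANS)SQNYPIVQK(DABCYL)R. Buffer pH 4.8 acetate, 1M NaCl, 5 mM DTT, 1 mg/ml BSA, 10% DMSO; 2 nM Q7S mutant dimer, 37 °C, 12 min.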

Experiment [2] concerns HIV-1 (HIV-1 RF, HIV-1 NL4-3) in CEM-SS / MT-2 cells. As to the kind of experiment: Cytopathic effect (CPE) inhibition assay (XTT/MTT dye reduction). The class given is cell-based. In short, it runs like this:
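Readout is XTT reduction (A450, 4 h) after six days of culturing virus-infected (moi 0.025–0.819) or mock-infected CEM-SS/MT-2 cells, 2×10^4 per well, with half-log compound series. Antiviral EC50 and cytotoxic CC50 are relative to uninfected compound-free cells. Therapeutic index is CC50 divided by EC50.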
In general terms: Cytopathic effects are the visible damage that an infection or toxin causes in cultured cells.

In experiment [3] the test system is HIV-1 NL4-3 or HIV-1 NL4-3(I84V/L90M). Briefly: Susceptibility assay, p24 ELISA in infected MT-2 cells. The following applies: Human immunodeficiency virus 1, NL43, MT2, read-out: EC50 or IC50 (mM), values without asterisk (EC50). The format is cell-based. As to the method: T-cell lines, CEM-SS, and MT-2, and viruses HIV-1 RF and HIV-1 NL4-3 (pNL4-3) were obtained from the National Institutes of Health (AIDS Research and Reference Reagent Program, Bethesda, Md.).
Compounds were tested in phenotypic susceptibility assays at Virologic, Inc., (See Petropoulos C. J., Parkin N. T., Limoli K. L., Lie Y. S., Wrin T., Huang W., Tian H., Smith D., Winslow G. A., Capon D J, Whitcomb J M. 2000, “A novel phenotypic drug susceptibility assay for human immunodeficiency virus type 1,” Antimicrob Agents Chemother 44(4):920–928) or using the assay described here. MT-2 cells were infected with either HIV-1 NL4-3 or HIV-1 NL4-3([…]) and incubated in the presence of serial 0.5 log dilutions of test compounds. Three days later, culture supernatants were collected and virus production, as determined by p24 ELISA, was assayed. Percent inhibition was calculated as p24 concentration in compound-treated samples as compared to infected, compound-free controls. Inhibition of viral replication is determined by measuring reduction in HIV p24 present in the culture supernatant, using a Beckman-Coulter p24HIV-1 Ag EIA kit and following the supplied protocol. Absorbance is read on a MRX microplate reader (Dynex Technologies). The EC50 was calculated as the concentration of compound that effected a decrease in the p24 production by infected, compound-treated cells to 50% of that produced by infected, compound-free cells.
A general note: ELISA stands for enzyme-linked immunosorbent assay.

Where [4] appears, read: Ave. Ki (nM), RET assay, Q7S enzyme, Morrison tight binding fit.
Setting [5] is: Human immunodeficiency virus 1, NL43, read-out: Ave CPE EC50.

In the case of `Cc1c(O)cccc1C(=O)N[C@@H](Cc1ccccc1)[C@H](O)C(=O)N1CSC(C)(C)[C@H]1C(=O)N[C@H]1CCCc2occc21` (stereo in doubt) [Example A48, 3-[2-Hydroxy-3-(3-hydroxy-2-methyl-benzoylamino)-4-phenyl-butyryl]-5,5-dimethyl-thiazolidine-4-carboxylic acid (4,5,6,7-tetrahydro-benzofuran-4-yl)-amide], the Ki in experiment [1] (setting [4]) was less than 0.1 nM. Further, the half-maximal effective concentration (EC50) was determined as 37 nM in experiment [2] (setting [5]) and 92 nM in experiment [3].

Take `Cc1c(O)cccc1C(=O)N[C@@H](Cc1ccccc1)[C@H](O)C(=O)N1CSC2(CCCC2)C1C(=O)N[C@@H]1C=CCCC1` (stereo in doubt) [Example C35, (S)-3-((2S,3S)-2-Hydroxy-3-{[1-(3-hydroxy-2-methyl-phenyl)-methanoyl]-amino}-4-phenyl-butanoyl)-1-thia-3-aza-spiro[4.4]nonane-4-carboxylic acid (S)-cyclohex-2-enylamide]: the inhibition constant Ki in experiment [1] (setting [4]) was less than 0.1 nM. For the same compound, the concentration giving a half-maximal response (EC50) amounted to 3 nM in experiment [2] (setting [5]) and 289 nM in experiment [3].

Take `Cc1ccccc1CNC(=O)[C@@H]1CC(F)(F)CN1C(=O)[C@@H](O)[C@H](Cc1ccccc1)NC(=O)COc1c(C)cccc1C` (stereo in doubt) [Example C40, 1-{3-[2-(2,6-Dimethyl-phenoxy)-acetylamino]-2-hydroxy-4-phenyl-butyryl}-4,4-difluoro-pyrrolidine-2-carboxylic acid 2-methyl-benzylamide]: the Ki in experiment [1] (setting [4]) was 1.8 nM and 0.82 nM. The EC50 in experiment [3] was determined as 1800 nM.

In the case of `Cc1c(O)cccc1C(=O)N[C@@H](Cc1ccccc1)[C@H](O)C(=O)N1CSC(C)(C)[C@H]1C(=O)NCc1ccc2c(c1)CCO2` [Example A9, (R)-3-((2S,3S)-2-Hydroxy-3-{[1-(3-hydroxy-2-methyl-phenyl)-methanoyl]-amino}-4-phenyl-butanoyl)-5,5-dimethyl-thiazolidine-4-carboxylic acid (2,3-dihydro-benzofuran-5-ylmethyl)-amide], the Ki in experiment [1] (setting [4]) stood at 0.49 nM. The EC50 in experiment [2] (setting [5]) was 138 nM; in experiment [3], 1080 nM.

For `Cc1ccncc1CNC(=O)[C@H]1N(C(=O)[C@@H](O)[C@H](Cc2ccccc2)NC(=O)c2cccc(O)c2C)CSC1(C)C` [Example A22, 3-(2-Hydroxy-3-{[1-(3-hydroxy-2-methyl-phenyl)-methanoyl]-amino}-4-phenyl-butanoyl)-5,5-dimethyl-thiazolidine-4-carboxylic acid-(4-methyl-pyridin-3-ylmethyl)amide], the inhibition constant Ki in experiment [1] (setting [4]) is less than 0.1 nM. In addition, the EC50 in experiment [2] (setting [5]) turned out to be 138 nM; in experiment [3], 318 nM.

For `Cc1c(O)cccc1C(=O)N[C@@H](Cc1ccccc1)[C@H](O)C(=O)N1CSC(C)(C)[C@H]1C(=O)NCC1=CCCC1` [Example A39, (R)-3-((2S,3S)-2-Hydroxy-3-{[1-(3-hydroxy-2-methyl-phenyl)-methanoyl]-amino}-4-phenyl-butanoyl)-5,5-dimethyl-thiazolidine-4-carboxylic acid (cyclopent-1-enylmethyl)-amide], in experiment [1] (setting [4]), the Ki was less than 0.1 nM. Also, the half-maximal effective concentration (EC50) in experiment [2] (setting [5]) was 123 nM; in experiment [3], 213 nM.

In turn, `Cc1c(O)cccc1C(=O)N[C@@H](Cc1ccccc1)[C@H](O)C(=O)N1CSC(C)(C)[C@H]1C(=O)NCc1ccsc1` [Example A40, (R)-3-((2S,3S)-2-Hydroxy-3-{[1-(3-hydroxy-2-methyl-phenyl)-methanoyl]-amino}-4-phenyl-butanoyl)-5,5-dimethyl-thiazolidine-4-carboxylic acid (thiophen-3-ylmethyl)-amide] gave an inhibitory constant (Ki) in experiment [1] (setting [4]) of less than 0.1 nM. In addition, the concentration giving a half-maximal response (EC50) was determined as 40 nM in experiment [2] (setting [5]) and 109 nM in experiment [3].

Compound `Cc1c(O)cccc1C(=O)N[C@@H](Cc1ccccc1)[C@H](O)C(=O)N1CSC(C)(C)[C@H]1C(=O)NCc1nccs1` [Example A41, (R)-3-((2S,3S)-2-Hydroxy-3-{[1-(3-hydroxy-2-methyl-phenyl)-methanoyl]-amino}-4-phenyl-butanoyl)-5,5-dimethyl-thiazolidine-4-carboxylic acid (thiazol-2-ylmethyl)-amide] yielded an inhibitory constant (Ki) in experiment [1] (setting [4]) of 0.17 nM. For the same compound, the EC50 in experiment [2] (setting [5]) turned out to be 145 nM; in experiment [3], 242 nM.

In the case of `Cc1c(O)cccc1C(=O)N[C@@H](Cc1ccccc1)[C@H](O)C(=O)N1CSC(C)(C)[C@H]1C(=O)N[C@H]1CCCc2ncccc21` [Example A42, 3-[2-Hydroxy-3-(3-hydroxy-2-methyl-benzoylamino)-4-phenyl-butyryl]-5,5-dimethyl-thiazolidine-4-carboxylic acid (5,6,7,8-tetrahydro-quinolin-5-yl)-amide], in experiment [1] (setting [4]), the Ki was less than 0.1 nM. Besides, the values for the EC50 in experiment [2] (setting [5]) and in experiment [3] were 65 nM and 98 nM, respectively.

For `Cc1c(O)cccc1C(=O)N[C@@H](Cc1ccccc1)[C@H](O)C(=O)N1CSC(C)(C)[C@H]1C(=O)NCc1ccoc1` [Example A45, (R)-3-((2S,3S)-2-Hydroxy-3-{[1-(3-hydroxy-2-methyl-phenyl)-methanoyl]-amino}-4-phenyl-butanoyl)-5,5-dimethyl-thiazolidine-4-carboxylic acid (furan-3-ylmethyl)-amide], the Ki in experiment [1] (setting [4]) was less than 0.1 nM. Further, the EC50 was determined as 34 nM in experiment [2] (setting [5]) and 48 nM in experiment [3].

Take `Cc1c(O)cccc1C(=O)N[C@@H](Cc1ccccc1)[C@H](O)C(=O)N1CSC(C)(C)[C@H]1C(=O)N[C@H]1CCCc2sccc21` [Example A50, 3-[2-Hydroxy-3-(3-hydroxy-2-methyl-benzoylamino)-4-phenyl-butyryl]-5,5-dimethyl-thiazolidine-4-carboxylic acid (4,5,6,7-tetrahydro-benzo[b]thiophen-4-yl)-amide]: the Ki in experiment [1] (setting [4]) was less than 0.1 nM. Moreover, the results for the concentration for a half-maximal effect (EC50) in experiment [2] (setting [5]) and in experiment [3] were 24 nM and 125 nM, respectively.

In experiment [1] (setting [4]), `Cc1c(O)cccc1C(=O)N[C@@H](Cc1ccccc1)[C@H](O)C(=O)N1CSC(C)(C)[C@H]1C(=O)N[C@H]1CCc2ncccc21` [Example A51, 3-[2-Hydroxy-3-(3-hydroxy-2-methyl-benzoylamino)-4-phenyl-butyryl]-5,5-dimethyl-thiazolidine-4-carboxylic acid (6,7-dihydro-5H-[1]pyrindin-5-yl)-amide] had an inhibition constant (Ki) of less than 0.1 nM. In addition, the EC50 in experiment [2] (setting [5]) stood at 159 nM; in experiment [3], 50 nM.

`Cc1occc1CNC(=O)[C@H]1N(C(=O)[C@@H](O)[C@H](Cc2ccccc2)NC(=O)c2cccc(O)c2C)CSC1(C)C` [Example A53, (R)-3-((2S,3S)-2-Hydroxy-3-{[1-(3-hydroxy-2-methyl-phenyl)-methanoyl]-amino}-4-phenyl-butanoyl)-5,5-dimethyl-thiazolidine-4-carboxylic acid (2-methyl-furan-3-ylmethyl)-amide]: the Ki in experiment [1] (setting [4]) is less than 0.1 nM. Further, the EC50 in experiment [2] (setting [5]) worked out at 28 nM; in experiment [3], 70 nM.

As to `Cc1c(O)cccc1C(=O)N[C@@H](Cc1ccccc1)[C@H](O)C(=O)N1CSC(C)(C)[C@H]1C(=O)N[C@H]1CCOc2c(F)cc(F)cc21` [Example A55, (R)-3-((2S,3S)-2-Hydroxy-3-{[1-(3-hydroxy-2-methyl-phenyl)-methanoyl]-amino}-4-phenyl-butanoyl)-5,5-dimethyl-thiazolidine-4-carboxylic acid ((S)-6,8-difluoro-chroman-4-yl)-amide], the inhibition constant Ki in experiment [1] (setting [4]) was found to be 0.21 nM. The 50% effective concentration (EC50) in experiment [2] (setting [5]) was determined as 54 nM; in experiment [3], 798 nM.

In turn, `Cc1c(O)cccc1C(=O)N[C@@H](Cc1ccccc1)[C@H](O)C(=O)N1CSC(C)(C)[C@H]1C(=O)N[C@H]1CCc2cc(F)ccc21` [Example A56, (R)-3-((2S,3S)-2-Hydroxy-3-{[1-(3-hydroxy-2-methyl-phenyl)-methanoyl]-amino}-4-phenyl-butanoyl)-5,5-dimethyl-thiazolidine-4-carboxylic acid ((S)-5-fluoro-indan-1-yl)-amide] showed an inhibition constant Ki in experiment [1] (setting [4]) of 0.27 nM. The concentration giving a half-maximal response (EC50) came out at 42 nM in experiment [2] (setting [5]) and 378 nM in experiment [3].

With `Cc1ccccc1CNC(=O)C1N(C(=O)[C@@H](O)[C@H](CSc2ccccc2)NC(=O)c2cccc(O)c2C)CSC1(C)C` (stereo partly shown) [drawing 969], in experiment [1] (Ki, unit inferred), the Ki was 0.25 nM. Moreover, the concentration for a half-maximal effect (EC50) in experiment [2] (unit inferred, read-out: EC50) was 879 nM.
